Measurements taken from the C3SDB collision cross section collection.
One block for each molecule: values may come before it.

Key:
[1] = instrument: TW, calibrated with phosphatidylcholines (ESI+) and phosphatidylethanolamines (ESI-)
[2] = [M+H]+; instrument: TW; calibrated with phosphatidylcholines (ESI+) and phosphatidylethanolamines (ESI-)
[3] = instrument: DT, single field, calibrated with Agilent tune mix (Agilent)
[4] = [M+H]+; instrument: DT; stepped-field
[5] = [M+Na]+; instrument: DT; stepped-field

SMILES: CCCCCC/C=C/CCCCCCCC(=O)OCC(COP(=O)([O-])OCC(O)COC(=O)C(N)CCCC[NH3+])OC(=O)CCCCCCCCCCCCC (stereo not drawn) [LysPG(30:1)]
collision cross section (N2) ([1]; [M+H]+): 287 Å²

SMILES: CCCCCCCCCCCCCCCCCCCCC(=O)O[C@H](COC(=O)CCCCCCCCCCC)COP(=O)(O)O [PA(33:0)]
collision cross section (N2) ([1]; [M-H]-): 254.5 Å²

SMILES: CCCCCC/C=C\CCCCCCCC(=O)O[C@H](CO/C=C\CCCCCCCCCCCCCCCC)COP(=O)(O)OC[C@@H](O)CO [PG(p34:1)]
collision cross section (N2) ([1]; [M-H]-): 268.6 Å²

SMILES: CCCCCC/C=C\CCCCCCCCCC(=O)OC(COC(=O)CCCCCCCCCCCCCCC)COP(=O)([O-])OCC(O)COC(=O)C(C)[NH3+] (stereo not drawn) [AlaPG(34:1)]
collision cross section (N2) ([1]; [M+H]+): 291.7 Å² | collision cross section (N2) ([1]; [M+K]+): 293.6 Å² | collision cross section (N2) ([1]; [M+Na]+): 294.3 Å²

SMILES: CCCCCC/C=C\CCCCCCCCCC(=O)OCC(COP(=O)([O-])OCC(O)COC(=O)C(N)CCCC[NH3+])OC(=O)CCCCCCCCCCCCCCCC (stereo not drawn) [LysPG(35:1)]
collision cross section (N2) ([1]; [M+H]+): 303.5 Å²

SMILES: CCCCCCCCCCCCCCCC(=O)OCC(CO[C@@H]1O[C@@H](C(=O)O)[C@H](O)[C@H](O)[C@H]1O)OC(=O)CCCCCCCCCCCCCCC (stereo partly drawn) [GlcADG(16:0/16:0)]
collision cross section (N2) ([1]; [M+NH4]+): 286 Å² | collision cross section (N2) ([1]; [M+Na]+): 282.6 Å² | collision cross section (N2) ([1]; [M-H]-): 267.9 Å²

SMILES: CCCCCCCCCCCCCCCCCCCCC(=O)O[C@H](COC(=O)CCCCCCCCCCCCC)COP(=O)(O)O [PA(35:0)]
collision cross section (N2) ([1]; [M-H]-): 261 Å²

SMILES: CCCCCCCCCCCCCCCC(=O)OC(COC(=O)CCCCCCCCCCCCCC)COP(=O)([O-])OCC(O)COC(=O)C(N)CCCC[NH3+] (stereo not drawn) [LysPG(31:0)]
collision cross section (N2) ([1]; [M+H]+): 293.9 Å²

SMILES: CCCCCCCCCCCCCCCCCCCCCC(=O)OC[C@H](COP(=O)(O)O)OC(=O)CCCCCCCCCCC [PA(34:0)]
collision cross section (N2) ([1]; [M-H]-): 257.6 Å²

SMILES: CCCCCCCCCCCCCCCC(=O)OCC(O)COP(=O)([O-])OCC[N+](C)(C)C (stereo not drawn) [LPC(16:0)]
collision cross section (N2) [2]: 228.5 Å² | collision cross section (N2) ([3]; [M+HCOO]-): 235 Å² | collision cross section (N2) ([3]; [M+H]+): 229.8 Å² | collision cross section (N2) [4]: 233.3 Å²

More lines, now with the values ahead:

collision cross section (N2) ([1]; [M+CH3COO]-): 313.7 Å² | collision cross section (N2) ([1]; [M+Cl]-): 305.9 Å² | collision cross section (N2) ([1]; [M+K]+): 302.5 Å² | collision cross section (N2) ([1]; [M+NH4]+): 303.2 Å² | collision cross section (N2) ([1]; [M+Na]+): 301.9 Å² | collision cross section (N2) ([1]; [M-H]-): 303.3 Å²
SMILES: CCCCCCCCC=CCC=CCC=CCC(=O)OC[C@H](CO[C@@H]1O[C@H](CO[C@H]2O[C@H](CO)[C@H](O)C(O)C2O)[C@H](O)C(O)C1O)OC(=O)CC=CCC=CCC=CCCCCCCCC (stereo partly drawn) [DGDG(18:3/18:3)]

collision cross section (N2) ([1]; [M-H]-): 256.8 Å²
SMILES: CCC/C=C\C/C=C\CCCCCCCC(=O)O[C@H](CO/C=C\CCCCCCCCCCCCC)COP(=O)(O)OC[C@@H](O)CO [PG(p31:2)]

collision cross section (N2) ([1]; [M-H]-): 264.5 Å²
SMILES: CCCCC/C=C\CCCCCCCC(=O)OC[C@H](COP(=O)(O)OC[C@@H](O)CO)OC(=O)CCCCCCC/C=C\CCCCCCCC [PG(33:2)]

collision cross section (N2) ([1]; [M-H]-): 257.1 Å²
SMILES: CCCCCCC/C=C\CCCCCCCC(=O)O[C@H](COC(=O)CCCCCCCCCCCC)COP(=O)(O)OC[C@@H](O)CO [PG(30:1)]

collision cross section (N2) [5]: 295.6 Å² | collision cross section (N2) [2]: 288.2 Å²
SMILES: CC/C=C\C/C=C\C/C=C\C/C=C\C/C=C\CCCC(=O)OC[C@H](COP(=O)(O)OCCN)OC(=O)CCCCC/C=C\C/C=C\C/C=C\C/C=C\CCCCC [PE(42:9)]
